Measurements reported in patent US20220000117A1, “METHOD FOR CONTROLLING DISEASES IN SMALL GRAIN CEREALS, SEED OF SMALL GRAIN CEREALS, AND METHOD FOR SUPPRESSING LODGING DAMAGE IN SMALL GRAIN CEREALS” (KUMIAI CHEMICAL INDUSTRY CO., LTD., priority 2019, published 2022).

Tests used:
[1] = system: powdery mildew; test: Test Example 1: control test of wheat powdery mildew, field, wheat variety Haruyutaka; format: in vivo, Blumeria graminis; conditions: Foliage Treatment, spray 250 g/ha three times; flag leaves, 79 days after seeding
Procedure: Seed of wheat (variety: Haruyutaka) sterilized in advance with commercial Benlate T wettable powder 20 (“Benlate” is a registered trademark) was used. In Example 1, seed having a mass of 1 kg was mixed into 100 ml of suspension water containing 5 g of dichlobentiazox, air-dried, and then, stripe-sown in a field with a furrow width of 30 cm and a ratio of 163 kg/ha (417 seeds/m^2). In contrast, in Comparative Example 1, seed which had not treated with dichlobentiazox was sown in a field in the same manner, and a spray solution corresponding to that obtained by suspending 500 g of dichlobentiazox in 200 liters of water per 1 ha was sprayed on foliage of wheat three times, during an ear emergence period (63 days after seeding), a flowering period (70 days after seeding), and a flowering end period (77 days after seeding). Similarly, in place of 500 g of dichlobentiazox in Comparative Example 1, 250 g of azoxystrobin (commercial Amistar 20 flowable was used. “Amistar” is a registered trademark) was used in Comparative Example 2, and 125 g of propiconazole (commercial Tilt emulsifiable concentrate 25 was used, “Tilt” is a registered trademark) was used in Comparative Example 3. The presence or absence of disease occurrence and a lesion area ratio of powdery mildew in flag leaves of 30 stems were investigated 79 days after seeding according to the criteria in Table 1, and a disease leaf rate and the degree of disease occurrence were calculated by the following calculation formula (1).
(§1) Degree of Disease Occurrence=Σ(Index×Number of Leaves of Index)/(4×Number of Investigated Leaves)×100 (1)

[2] = system: septoria leaf blotch; test: Test Example 10: control test of septoria leaf blotch of wheat, cup in greenhouse, inoculated, variety ARKEOS (Tables 15 to 19); format: in vivo, Septoria tritici; conditions: Table 19; for Degree of Disease Occurrence: untreated 45.0; for Disease Leaf Rate (%): untreated 98.0
Procedure: as §1
Seed of wheat (variety: ARKEOS) was used, and 100 ml of suspension waters each containing the compound shown in Table 15 at an amount shown in Table 15 (synthesis was performed in accordance with a known method, a liquid dissolved in a small amount of DMSO or formulated 10% wettable powder was used) were prepared. Seed having a mass of 1 kg was mixed into the suspension water with a rate shown in Examples of Table 15, and air-dried, and then, 5 seeds were sown in a plastic cup having a diameter of 6 cm containing mixed soil of river sand and horticultural soil and managed in a greenhouse. In Comparative Examples, 20 ml of suspension water of an active ingredient, which had been adjusted to have a concentration shown in Table 15 to 19, was sprayed in a frame of 45 cm×45 cm in which a pot of wheat seedlings was placed (corresponding to 1000 L/ha) 14 days after seeding. On day 14 after seeding, a spore suspension in which conidiospores of septoria leaf blotch are suspended was sprayed and inoculated on leaves of wheat seedlings (after the sprayed liquid was dried in the case of Comparative Examples), a lesion area ratio of septoria leaf blotch in a second leaf was investigated approximately 35 days after seeding according to the criteria in Table 1, and the degree of disease occurrence was calculated by the above calculation formula (1).

[3] = system: powdery mildew; test: Test Example 9: control test of wheat powdery mildew, cup in greenhouse, inoculated, Norin No. 61 (Tables 10 to 14); format: in vivo, Blumeria graminis; parameters: key to Degree of Disease Occurrence: Σ(index×leaves)/(4×leaves investigated)×100; 0 = no disease, 100 = max
Procedure: as §1
Seed of wheat (variety: Norin No. 61) was used, and 100 ml of suspension waters each containing the compound shown in Table 10 at an amount shown in […] (synthesis was performed in accordance with a known method, a solution dissolved in DMSO or formulated 10% wettable powder was used) were prepared. The seed having a mass of 1 kg of wheat was mixed into the suspension water with a chemical treated amount shown in Table 10, and air-dried, and then, 5 seeds were sown in a plastic cup having a diameter of 6 cm containing river sand and managed in a greenhouse. In Comparative Examples, 20 ml of the suspension water of an active ingredient, which had been adjusted to have a concentration shown in Table 10, was sprayed in a frame of 45 cm×45 cm in which a pot of wheat seedlings was placed (corresponding to 1000 L/ha) 14 days after seeding. On day 14 after seeding, conidiospores of powdery mildew were sifted over leaves of wheat seedlings and inoculated onto the leaves (after the sprayed liquid was dried in the case of Comparative Examples), a lesion area ratio of powdery mildew in a first leaf was investigated 21 days after seeding according to the criteria in Table 1, and the degree of disease occurrence was calculated by the above calculation formula (1).

[4] = Foliage Treatment, spray 50 ppm suspension water (corresponding to 50 g/ha) 14 days after seeding
[5] = Seed Treatment, 0.5 g/Seed 1 kg (corresponding to 50 g/ha)
[6] = Table 12 run (different day), Foliage Treatment, spray 5 ppm (5 g/ha)
[7] = Table 12 run (different day), Foliage Treatment, spray 10 ppm (10 g/ha)
[8] = Table 12 run (different day), Foliage Treatment, spray 50 ppm (50 g/ha)
[9] = Table 12 run (different day), Seed Treatment 0.05 g/Seed 1 kg (5 g/ha)
[10] = Table 12 run (different day), Seed Treatment 0.1 g/Seed 1 kg (10 g/ha)
[11] = Table 12 run (different day), Seed Treatment 0.5 g/Seed 1 kg (50 g/ha)
[12] = Table 14, Foliage Treatment, spray 50 ppm suspension water (corresponding to 50 g/ha) 14 days after seeding, untreated 70.0
[13] = Table 14, Foliage Treatment, spray 50 ppm suspension water (corresponding to 50 g/ha) 14 days after seeding, untreated 100.0
[14] = Table 14, Seed Treatment, 0.5 g/Seed 1 kg (corresponding to 50 g/ha), first leaf, 21 days after seeding, untreated 70.0
[15] = Table 14, Seed Treatment, 0.5 g/Seed 1 kg (corresponding to 50 g/ha), first leaf, 21 days after seeding, untreated 100.0
[16] = Foliage Treatment, spray 100 ppm suspension water (corresponding to 100 g/ha) 14 days after seeding
[17] = Seed Treatment, 1 g/Seed 1 kg (corresponding to 100 g/ha)
[18] = Table 13 run (different day), Foliage Treatment, spray 5 ppm (5 g/ha)
[19] = Table 13 run (different day), Foliage Treatment, spray 10 ppm (10 g/ha)
[20] = Table 13 run (different day), Foliage Treatment, spray 50 ppm (50 g/ha)
[21] = Table 13 run (different day), Seed Treatment 0.05 g/Seed 1 kg (5 g/ha)
[22] = Table 13 run (different day), Seed Treatment 0.1 g/Seed 1 kg (10 g/ha)
[23] = Table 13 run (different day), Seed Treatment 0.5 g/Seed 1 kg (50 g/ha)

CO/C=C(/C(=O)OC)c1ccccc1Oc1cc(Oc2ccccc2C#N)ncn1 [Azoxystrobin, azoxystrobin, reference compound]
Degree of Disease Occurrence [1]: 17.6
Disease Leaf Rate (%) [1]: 90.0%

CCNC(=N)c1snc(Cl)c1Cl [Compound (15)]
Degree of Disease Occurrence [2, 4]: 39.2
Disease Leaf Rate (%) [2, 4]: 93.6%
Degree of Disease Occurrence [2, 5]: 10.3
Disease Leaf Rate (%) [2, 5]: 41.3%
Degree of Disease Occurrence [3, 6]: 66.7
Disease Leaf Rate (%) [3, 6]: 100.0%
Degree of Disease Occurrence [3, 7]: 80.0
Disease Leaf Rate (%) [3, 7]: 93.3%
Degree of Disease Occurrence [3, 8]: 38.3
Disease Leaf Rate (%) [3, 8]: 60.0%
Degree of Disease Occurrence [3, 9]: 40.8
Disease Leaf Rate (%) [3, 9]: 70.0%
Degree of Disease Occurrence [3, 10]: 31.3
Disease Leaf Rate (%) [3, 10]: 60.0%
Degree of Disease Occurrence [3, 11]: 11.9
Disease Leaf Rate (%) [3, 11]: 34.4%
Degree of Disease Occurrence [3, 12]: 47.9
Disease Leaf Rate (%) [3, 13]: 100.0%
Degree of Disease Occurrence [3, 14]: 13.1
Disease Leaf Rate (%) [3, 15]: 37.5%

N=C(Nc1ccccc1)c1snc(Cl)c1Cl [Compound (16)]
Degree of Disease Occurrence [2, 4]: 38.3
Disease Leaf Rate (%) [2, 4]: 99.7%
Degree of Disease Occurrence [2, 5]: 29.4
Disease Leaf Rate (%) [2, 5]: 82.5%
Degree of Disease Occurrence [3, 7]: 63.3
Disease Leaf Rate (%) [3, 7]: 100.0%
Degree of Disease Occurrence [3, 8]: 43.3
Disease Leaf Rate (%) [3, 8]: 80.0%
Degree of Disease Occurrence [3, 10]: 22.5
Disease Leaf Rate (%) [3, 10]: 65.0%
Degree of Disease Occurrence [3, 11]: 6.3
Disease Leaf Rate (%) [3, 11]: 16.7%
Degree of Disease Occurrence ([3]; Table 14, Foliage Treatment, spray 10 ppm suspension water (corresponding to 10 g/ha) 14 days after seeding, untreated 70.0): 32.6
Disease Leaf Rate (%) ([3]; Table 14, Foliage Treatment, spray 10 ppm suspension water (corresponding to 10 g/ha) 14 days after seeding, untreated 100.0): 80.6%
Degree of Disease Occurrence [3, 12]: 19.6
Disease Leaf Rate (%) [3, 13]: 53.3%
Degree of Disease Occurrence ([3]; Table 14, Foliage Treatment, spray 100 ppm suspension water (corresponding to 100 g/ha) 14 days after seeding, untreated 70.0): 29.2
Disease Leaf Rate (%) ([3]; Table 14, Foliage Treatment, spray 100 ppm suspension water (corresponding to 100 g/ha) 14 days after seeding, untreated 100.0): 80.6%
Degree of Disease Occurrence ([3]; Table 14, Seed Treatment, 0.1 g/Seed 1 kg (corresponding to 10 g/ha), first leaf, 21 days after seeding, untreated 70.0): 15.2
Disease Leaf Rate (%) ([3]; Table 14, Seed Treatment, 0.1 g/Seed 1 kg (corresponding to 10 g/ha), first leaf, 21 days after seeding, untreated 100.0): 60.8%
Degree of Disease Occurrence [3, 14]: 8.9
Disease Leaf Rate (%) [3, 15]: 35.4%
Degree of Disease Occurrence ([3]; Table 14, Seed Treatment, 1 g/Seed 1 kg (corresponding to 100 g/ha), first leaf, 21 days after seeding, untreated 70.0): 18.2
Disease Leaf Rate (%) ([3]; Table 14, Seed Treatment, 1 g/Seed 1 kg (corresponding to 100 g/ha), first leaf, 21 days after seeding, untreated 100.0): 50.0%

N/C(=N\O)c1snc(Cl)c1Cl [Compound (17)]
Degree of Disease Occurrence [2, 4]: 38.3
Disease Leaf Rate (%) [2, 4]: 99.7%
Degree of Disease Occurrence [2, 16]: 36.7
Disease Leaf Rate (%) [2, 16]: 94.9%
Degree of Disease Occurrence [2, 5]: 29.4
Disease Leaf Rate (%) [2, 5]: 82.5%
Degree of Disease Occurrence [2, 17]: 20.9
Disease Leaf Rate (%) [2, 17]: 78.8%
Degree of Disease Occurrence [3, 6]: 45.0
Disease Leaf Rate (%) [3, 6]: 93.3%
Degree of Disease Occurrence [3, 7]: 43.3
Disease Leaf Rate (%) [3, 7]: 80.0%
Degree of Disease Occurrence [3, 9]: 23.3
Disease Leaf Rate (%) [3, 9]: 66.7%
Degree of Disease Occurrence [3, 10]: 10.4
Disease Leaf Rate (%) [3, 10]: 25.0%
Degree of Disease Occurrence [3, 18]: 85.8
Disease Leaf Rate (%) [3, 18]: 100.0%
Degree of Disease Occurrence [3, 19]: 62.4
Disease Leaf Rate (%) [3, 19]: 95.8%
Degree of Disease Occurrence [3, 20]: 42.4
Disease Leaf Rate (%) [3, 20]: 90.6%
Degree of Disease Occurrence [3, 21]: 66.7
Disease Leaf Rate (%) [3, 21]: 100.0%
Degree of Disease Occurrence [3, 22]: 47.9
Disease Leaf Rate (%) [3, 22]: 100.0%
Degree of Disease Occurrence [3, 23]: 33.1
Disease Leaf Rate (%) [3, 23]: 83.8%
